Reference: patent publication US7915237B2, “Production of pure stereoisomers of tricyclo[5.2.1.02.6]-dec-9-yl-xanthogenate and medicaments therefrom” (Lumavita AG, priority 2001, dated 2011)

Tests used:
Herpes simplex virus 1 [1] = test: Inhibition of Herpes proliferation by measuring the cytopathogenic effect; type: cell-based, Herpes simplex virus 1 in monkey kidney cells (Rita strain); settings: 50 PFU HSV-1, pH 6.8, microscopy after 6 days
Experimental: The inhibition of the proliferation of Herpes by exo/exo-tricyclo[5.2.1.0^2.6]dec-9-yl-xanthogenate was determined by measuring the cytopathogenic effect. For this purpose, monkey kidneys cells (Rita strain) were seeded on Linbro plates. After 24 hours, 50 plaque-forming units of Herpes simplex virus 1 were added to each culture. After allowing for adsorption for one hour, fresh culture medium adjusted to pH 6.8 was added. Four cultures each were treated either with the pure exo/exo isomer or a mixture of isomers containing 83% of the exo/exo isomer using the following concentrations: 0, 5, 10, 15 or 20 μg/ml. The cultures were analyzed by microscopy after 6 days. Untreated cultures were completely lysed as a result of virus proliferation (cytopathogenic effect).

Herpes simplex virus 1 [2] = test: Inhibition of Herpes proliferation by measuring viral proliferation (plaque assay of supernatants); type: cell-based, Herpes simplex virus 1 in monkey kidney cells (Rita strain)
Experimental: The inhibition of the proliferation of Herpes by exo/exotricyclo[5.2.1.0^2.6]dec-9-yl-xanthogenate was determined by measuring viral proliferation. For this purpose, monkey kidneys cells (Rita strain) were seeded on Linbro plates. After 24 hours, 100 plaque-forming units of Herpes simplex virus 1 were added to each culture. After allowing for adsorption for one hour, fresh culture medium adjusted to pH 6.8 was added. Four cultures each were treated either with the pure exo/exo isomer or a mixture of isomers containing 83% of the exo/exo isomer using the following concentrations: 0, 5, 10 or 15 μg/ml. The virus concentrations in the supernatants of the cultures were determined after four days by means of plaque assays. The curves were used to determine the concentration at which viral proliferation was inhibited by 50% (IC50). An IC50 of 0.6 μg/ml was found for the exo/exo isomer. […] This means that the pure exo/exo isomer effected a 50% reduction of viral proliferation at a more than 10-fold lower concentration as compared to the mixture of isomers.

concentration at which viral proliferation was inhibited by 50% (IC50) (Herpes simplex virus 1 [2]; 100 PFU HSV-1, pH 6.8, virus in supernatant after four days, from dose-response curve): 0.6 µg/mL
Compound: S=C(S)OC1CC2CC1C1CCCC21 (single isomer, unassigned) [exo/exo isomer, exo/exo-tricyclo[5.2.1.0^2.6]dec-9-yl-xanthogenate]
cytopathogenic effect in treated cultures (Herpes simplex virus 1 [1]; 5, 10, 15 or 20 μg/ml): no evidence of a cytopathogenic effect
concentration at which proliferation of the virus was completely suppressed (no cytopathogenic effect) (Herpes simplex virus 1 [1]; tested 5-20 μg/ml): ≤ 5 µg/mL
fold lower concentration for 50% reduction of viral proliferation as compared to the mixture of isomers (Herpes simplex virus 1 [2]; IC50 ratio versus mixture containing 83% exo/exo isomer): more than 10 fold
fold stronger antiviral effect than the mixture of isomers (Herpes simplex virus 1 [2]; summary statement, versus mixture of 83% exo/exo and 17% other isomers): 4-10 fold
